Source: ChEMBL document CHEMBL5465560, “Selectivity Literature for EUbOPEN Chemogenomic Library” (2024)

Key:
[1] = molecular target: T1, Serine/threonine-protein kinase DCLK2 (Homo sapiens) (UniProt Q8N568); conditions: at 10 µM
T1 sequence (whole entry): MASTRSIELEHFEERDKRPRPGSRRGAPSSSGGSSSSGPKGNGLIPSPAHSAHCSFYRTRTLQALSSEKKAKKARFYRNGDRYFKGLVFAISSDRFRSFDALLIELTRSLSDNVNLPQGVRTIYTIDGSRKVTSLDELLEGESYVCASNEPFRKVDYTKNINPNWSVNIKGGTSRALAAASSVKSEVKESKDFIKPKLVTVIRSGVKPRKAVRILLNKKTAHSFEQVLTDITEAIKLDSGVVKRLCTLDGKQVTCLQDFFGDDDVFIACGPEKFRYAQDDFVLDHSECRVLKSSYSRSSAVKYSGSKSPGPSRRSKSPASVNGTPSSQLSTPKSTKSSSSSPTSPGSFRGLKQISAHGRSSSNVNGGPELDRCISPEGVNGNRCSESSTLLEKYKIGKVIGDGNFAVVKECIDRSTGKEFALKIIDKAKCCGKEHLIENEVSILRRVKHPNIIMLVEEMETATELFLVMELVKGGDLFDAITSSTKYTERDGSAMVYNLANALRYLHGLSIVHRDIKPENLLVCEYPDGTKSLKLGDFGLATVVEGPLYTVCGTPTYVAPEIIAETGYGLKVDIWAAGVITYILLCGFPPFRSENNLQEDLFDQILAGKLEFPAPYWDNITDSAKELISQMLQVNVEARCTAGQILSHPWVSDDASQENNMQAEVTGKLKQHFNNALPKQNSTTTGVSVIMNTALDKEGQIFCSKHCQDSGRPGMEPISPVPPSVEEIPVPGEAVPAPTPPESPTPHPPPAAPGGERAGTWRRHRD

[2] = molecular target: T2, Serine/threonine-protein kinase Nek9 (Homo sapiens) (UniProt Q8TD19); assay: Selectivity interaction (ActivX KiNativ screen (kinase selectivity in THP-1 cell lysates)) EUB0000639a NEK9; format: subcellular; conditions: lysate, at 0.04 µM
T2 sequence (whole entry): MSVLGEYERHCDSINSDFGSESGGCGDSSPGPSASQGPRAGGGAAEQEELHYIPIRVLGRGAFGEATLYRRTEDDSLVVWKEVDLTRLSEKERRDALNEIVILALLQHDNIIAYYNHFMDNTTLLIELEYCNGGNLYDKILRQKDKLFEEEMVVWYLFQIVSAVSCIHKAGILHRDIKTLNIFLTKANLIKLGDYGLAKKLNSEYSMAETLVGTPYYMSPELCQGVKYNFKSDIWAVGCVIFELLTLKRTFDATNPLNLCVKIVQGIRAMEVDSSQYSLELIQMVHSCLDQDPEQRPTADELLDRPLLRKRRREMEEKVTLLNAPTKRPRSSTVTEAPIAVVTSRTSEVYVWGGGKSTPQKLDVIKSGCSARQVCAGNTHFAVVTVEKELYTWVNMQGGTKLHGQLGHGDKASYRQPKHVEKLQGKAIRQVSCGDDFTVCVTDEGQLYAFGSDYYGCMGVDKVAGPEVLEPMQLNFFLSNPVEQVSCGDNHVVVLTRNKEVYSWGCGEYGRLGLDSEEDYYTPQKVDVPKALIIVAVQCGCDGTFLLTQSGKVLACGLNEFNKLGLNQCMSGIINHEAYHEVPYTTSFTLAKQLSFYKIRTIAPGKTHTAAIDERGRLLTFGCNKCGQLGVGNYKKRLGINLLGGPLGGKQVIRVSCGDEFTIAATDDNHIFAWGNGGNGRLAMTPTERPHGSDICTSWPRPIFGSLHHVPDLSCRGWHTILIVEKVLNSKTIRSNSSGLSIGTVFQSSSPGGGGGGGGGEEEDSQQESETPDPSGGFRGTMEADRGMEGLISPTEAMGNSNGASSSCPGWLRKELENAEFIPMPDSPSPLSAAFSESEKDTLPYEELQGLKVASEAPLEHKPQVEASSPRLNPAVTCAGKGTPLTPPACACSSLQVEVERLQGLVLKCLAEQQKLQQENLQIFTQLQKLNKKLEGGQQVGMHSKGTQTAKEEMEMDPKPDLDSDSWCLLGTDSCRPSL

[3] = molecular target: T3, Membrane-associated tyrosine- and threonine-specific cdc2-inhibitory kinase (Homo sapiens) (UniProt Q99640); conditions: at 10 µM
T3 sequence (whole entry): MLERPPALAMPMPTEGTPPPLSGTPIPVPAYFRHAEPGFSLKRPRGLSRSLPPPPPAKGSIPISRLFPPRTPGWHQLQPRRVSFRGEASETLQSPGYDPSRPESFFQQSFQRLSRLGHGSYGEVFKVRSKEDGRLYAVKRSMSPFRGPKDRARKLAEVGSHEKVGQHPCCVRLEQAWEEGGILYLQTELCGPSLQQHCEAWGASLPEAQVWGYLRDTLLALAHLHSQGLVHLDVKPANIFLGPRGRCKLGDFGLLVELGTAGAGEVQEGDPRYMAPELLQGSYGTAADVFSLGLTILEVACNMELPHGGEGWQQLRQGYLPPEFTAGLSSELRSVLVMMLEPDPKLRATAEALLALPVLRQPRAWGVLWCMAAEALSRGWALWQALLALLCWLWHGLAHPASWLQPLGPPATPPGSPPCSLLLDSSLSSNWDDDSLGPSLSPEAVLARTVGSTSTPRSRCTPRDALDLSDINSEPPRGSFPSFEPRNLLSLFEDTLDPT

Cc1cc([C@@H](C)Nc2ccccc2C(=O)O)c2nc(N3CCOCC3)cc(=O)n2c1 [AZD-6482]
% of control [1]: 100%

CC[C@@H]1[C@H](F)C(=O)N[C@@H]1COc1nccc2cc(C(N)=O)c(OC)cc12 [ZIMLOVISERTIB]
% of inhibition [2]: 5%

CCN(CC)CCCCNc1ncc2cc(-c3cc(OC)cc(OC)c3)c(NC(=O)NC(C)(C)C)nc2n1
% of control [3]: 100%
